Assay results reported in patent publication US9340510B2, “Tetrahydroisoquinoline derivatives, pharmaceutical compositions and uses thereof” (Boehringer Ingelheim International GmbH, priority 2014, dated 2016).

Target: human ACC2 (Homo sapiens (Human), UniProt O00763)
Experiment: ACC2 assay: spectrophotometric 384 well assay (coupled lactate dehydrogenase/pyruvate kinase)
Format: biochemical
Conditions: hACC2 construct lacking the 128 N-terminal amino acids, 25° C., 340 nm
Experimental: Spectrophotometric 384 Well Assay
Malonyl CoA formation by acetyl CoA carboxylases is stoichiometrically linked to the consumption of ATP. ACC2 activity is measured in a […] kinetic method measuring ADP generated during the ACC reaction using a coupled lactate dehydrogenase/pyruvate kinase reaction.
For biological testing, a human ACC2 construct which lacks the 128 amino acids at the N-terminus for increased solubility (nt 385-6966 in Genbank entry AJ575592) is cloned. The protein is then expressed in insect cells using a baculoviral expression system. Protein purification is performed by anion exchange.
All compounds are dissolved in dimethyl sulfoxide (DMSO) to a concentration of 10 mM.
Assay reactions are then carried out in 384-well plates, with hACC2 in an appropriate dilution and at final assay concentrations (f.c.) of 100 mM Tris (pH 7.5), 10 mM trisodium citrate, 25 mM KHCO3, 10 mM MgCl2, 0.5 mg/ml BSA, 3.75 mM reduced L-glutathione, 15 U/ml lactate dehydrogenase, 0.5 mM phosphoenolpyruvate, 15 U/ml pyruvate kinase, compounds at different concentrations at final DMSO concentrations of 1%.
The enzymatic reaction is then started by addition of a mixture of NADH, acetyl Coenzyme A (both […].) and ATP (500 uM f.c.). The decrease of the optical density (slope S) is then determined at 25° C. at a wavelength of 340 nm over 15 minutes in a spectrophotometric reader.
Each assay microtiter plate contains wells with vehicle instead of compound as controls for the non-inhibited enzyme (100% CTL; ‘HIGH’) and wells without acetyl-CoA as controls for non-specific NADH degradation (0% CTL; ‘LOW’).
The slope S is used for calculation of % CTL=(S(compound)−S(‘LOW’))/(S(‘HIGH’)−S(‘LOW’))*100. Compounds will give values between 100% CTL (no inhibition) and 0% CTL (complete inhibition).
For IC50 value determination, the sample slope in the presence of the test compound after subtraction of the low controls (S(compound)−S(‘LOW’)) are used.
An IC50 value is derived from the compound slopes at different dosages after subtraction of the low controls (S(compound)-S(‘LOW’)) by non-linear regression curve fitting (equation y=(A+((B−A)/(1+((C/x)^D))))).

Sequence of human ACC2 (O00763 129-2458): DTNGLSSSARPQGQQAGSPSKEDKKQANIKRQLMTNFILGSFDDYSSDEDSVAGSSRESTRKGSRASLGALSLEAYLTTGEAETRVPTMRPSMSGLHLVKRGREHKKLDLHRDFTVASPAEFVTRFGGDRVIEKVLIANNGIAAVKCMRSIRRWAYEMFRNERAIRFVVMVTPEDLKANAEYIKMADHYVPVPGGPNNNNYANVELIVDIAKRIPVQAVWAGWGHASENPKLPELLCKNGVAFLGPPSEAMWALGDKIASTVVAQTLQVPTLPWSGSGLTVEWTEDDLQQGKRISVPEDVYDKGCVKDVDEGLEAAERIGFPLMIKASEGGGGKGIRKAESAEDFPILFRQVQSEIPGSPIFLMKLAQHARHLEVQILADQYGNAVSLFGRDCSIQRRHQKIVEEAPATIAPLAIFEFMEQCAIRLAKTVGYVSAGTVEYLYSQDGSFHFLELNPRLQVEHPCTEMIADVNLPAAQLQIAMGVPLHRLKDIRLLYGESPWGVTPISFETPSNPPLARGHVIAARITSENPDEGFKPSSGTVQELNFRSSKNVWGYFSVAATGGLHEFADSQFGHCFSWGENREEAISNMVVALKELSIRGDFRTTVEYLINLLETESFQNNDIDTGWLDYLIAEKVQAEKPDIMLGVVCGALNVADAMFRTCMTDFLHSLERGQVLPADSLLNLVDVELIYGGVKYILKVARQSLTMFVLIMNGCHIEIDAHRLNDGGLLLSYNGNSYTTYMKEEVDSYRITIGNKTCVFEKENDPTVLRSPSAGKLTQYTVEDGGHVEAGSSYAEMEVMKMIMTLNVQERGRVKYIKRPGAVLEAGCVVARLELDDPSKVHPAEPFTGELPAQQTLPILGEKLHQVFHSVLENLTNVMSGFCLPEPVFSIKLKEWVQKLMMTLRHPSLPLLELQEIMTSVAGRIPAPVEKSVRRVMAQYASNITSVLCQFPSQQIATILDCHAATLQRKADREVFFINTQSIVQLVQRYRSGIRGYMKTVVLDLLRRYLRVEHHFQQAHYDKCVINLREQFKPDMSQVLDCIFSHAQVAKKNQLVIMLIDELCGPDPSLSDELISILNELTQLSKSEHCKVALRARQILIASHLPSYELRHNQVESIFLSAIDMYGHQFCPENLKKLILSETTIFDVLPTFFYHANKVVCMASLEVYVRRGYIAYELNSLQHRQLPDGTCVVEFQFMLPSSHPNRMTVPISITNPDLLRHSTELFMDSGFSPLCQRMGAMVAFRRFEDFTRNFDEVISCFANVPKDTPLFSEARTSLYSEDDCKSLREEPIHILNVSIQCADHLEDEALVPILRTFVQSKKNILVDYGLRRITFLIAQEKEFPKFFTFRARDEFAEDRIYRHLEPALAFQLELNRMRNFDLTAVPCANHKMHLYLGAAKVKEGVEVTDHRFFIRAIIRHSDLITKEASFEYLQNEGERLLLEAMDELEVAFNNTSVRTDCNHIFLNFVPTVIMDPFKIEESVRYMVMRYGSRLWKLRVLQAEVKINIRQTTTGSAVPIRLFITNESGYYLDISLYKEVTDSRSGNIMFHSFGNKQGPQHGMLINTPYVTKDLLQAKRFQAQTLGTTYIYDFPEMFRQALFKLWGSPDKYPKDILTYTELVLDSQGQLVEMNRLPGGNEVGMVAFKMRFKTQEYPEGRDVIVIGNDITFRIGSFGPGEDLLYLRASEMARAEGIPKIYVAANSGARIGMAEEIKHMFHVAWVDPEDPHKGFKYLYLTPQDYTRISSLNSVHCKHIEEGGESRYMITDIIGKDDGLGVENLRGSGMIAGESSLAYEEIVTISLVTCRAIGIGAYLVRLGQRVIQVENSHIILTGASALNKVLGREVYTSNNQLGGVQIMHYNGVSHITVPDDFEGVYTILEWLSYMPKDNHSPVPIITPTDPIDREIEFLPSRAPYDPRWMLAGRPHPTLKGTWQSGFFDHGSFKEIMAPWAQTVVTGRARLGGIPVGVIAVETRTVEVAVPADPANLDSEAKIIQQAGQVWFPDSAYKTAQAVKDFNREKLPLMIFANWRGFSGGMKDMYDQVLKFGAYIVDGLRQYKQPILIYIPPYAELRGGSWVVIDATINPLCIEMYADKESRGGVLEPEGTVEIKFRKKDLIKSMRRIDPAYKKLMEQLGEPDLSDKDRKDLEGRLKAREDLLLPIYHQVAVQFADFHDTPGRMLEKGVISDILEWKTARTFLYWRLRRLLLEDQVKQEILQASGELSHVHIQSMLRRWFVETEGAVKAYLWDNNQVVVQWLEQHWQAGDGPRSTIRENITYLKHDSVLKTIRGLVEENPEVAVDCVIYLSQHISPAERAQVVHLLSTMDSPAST

| IC50 [nM] | SMILES |
| --- | --- |
| 293 | CC(=O)NC(C)c1ccc(CN2CCc3cc(C(F)(F)F)ccc3C2)cc1 (centres unmarked) [Example 1.001, N-{1-[4-(6-Trifluoromethyl-3,4-dihydro-1H-isoquinolin-2-ylmethyl)-phenyl]-ethyl}-acetamide] |
| 524 | COC(=O)c1ccc2c(c1)CCN(Cc1ccc(C(C)NC(C)=O)cc1)C2 (centres unmarked) [Example 1.002] |
| 265 | CC(=O)NC(C)c1ccc(CN2CCc3cc(Br)ccc3C2)cc1 (centres unmarked) [Example 1.003] |
| 206 | CC(=O)NC(C)c1ccc(CN2CCc3c(Cl)cccc3C2)cc1 (centres unmarked) [Example 1.004] |
| 252 | CC(=O)NC(C)c1ccc(CN2CCc3c(cccc3OC(C)C)C2)cc1 (centres unmarked) [Example 1.005] |
| 878 | CC(=O)NC(C)c1ccc(CN2CCc3c(cccc3OCC3CC3)C2)cc1 (centres unmarked) [Example 1.006] |
| 291 | CC(=O)NC(C)c1ccc(CN2CCc3cc(OC(F)(F)F)ccc3C2)cc1 (centres unmarked) [Example 1.007] |
| 492 | CC(=O)NC(C)c1ccc(CN2CCc3c(cccc3OCC3CC3(F)F)C2)cc1 (centres unmarked) [Example 1.008] |
| 102 | CC(=O)NC(C)c1ccc(CN2CCc3cc(OCC(C)C)ccc3C2)cc1 (centres unmarked) [Example 1.009] |
| 614 | CC(=O)NC(C)c1ccc(CN2CCc3cc(OCC(F)F)ccc3C2)cc1 (centres unmarked) [Example 1.010] |
| 67 | CC(=O)NC(C)c1ccc(CN2CCc3cc(OCC4CCC4)ccc3C2)cc1 (centres unmarked) [Example 1.011] |
| 52 | CC(=O)NC(C)c1ccc(CN2CCc3cc(OCCC4CC4)ccc3C2)cc1 (centres unmarked) [Example 1.012] |
| 146 | CC(=O)NC(C)c1ccc(CN2CCc3cc(OCCCF)ccc3C2)cc1 (centres unmarked) [Example 1.013] |
| 95 | CC(=O)NC(C)c1ccc(CN2CCc3cc(OCCC(F)(F)F)ccc3C2)cc1 (centres unmarked) [Example 1.014] |
| 47 | CC(=O)NC(C)c1ccc(CN2CCc3cc(OCC4CC(F)(F)C4)ccc3C2)cc1 (centres unmarked) [Example 1.015] |
| 273 | CCOc1ccc2c(c1)CCN(Cc1ccc(C(C)NC(C)=O)cc1)C2 (centres unmarked) [Example 1.016] |
| 60 | CCCOc1ccc2c(c1)CCN(Cc1ccc(C(C)NC(C)=O)cc1)C2 (centres unmarked) [Example 1.017] |
| 407 | CCOc1cccc2c1CCN(Cc1ccc(C(C)NC(C)=O)cc1)C2 (centres unmarked) [Example 1.018] |
| 326 | CCCOc1cccc2c1CCN(Cc1ccc(C(C)NC(C)=O)cc1)C2 (centres unmarked) [Example 1.019] |
| 110 | CC(=O)NC(C)c1ccc(CN2CCc3cc(OC4CCC4)ccc3C2)cc1 (centres unmarked) [Example 1.020] |
| 110 | CC(=O)NC(C)c1ccc(CN2CCc3cc(OC(C)C)ccc3C2)cc1 (centres unmarked) [Example 1.021] |
| 126 | CC(=O)NC(C)c1ccc(CN2CCc3c(ccc(OCC4CC4)c3Br)C2)cc1 (centres unmarked) [Example 1.022] |
| 133 | COc1c(OCC2CC2)ccc2c1CCN(Cc1ccc(C(C)NC(C)=O)cc1)C2 (centres unmarked) [Example 1.023] |

| IC50 [nM] | SMILES |
| --- | --- |
| 415 | COc1ccc2c(c1Cl)CCN(Cc1ccc(C(C)NC(C)=O)cc1)C2 (centres unmarked) [Example 1.024] |
| 49 | CC(=O)NC(C)c1ccc(CN2CCc3c(ccc(OCC4CC4(F)F)c3Cl)C2)cc1 (centres unmarked) [Example 1.025] |
| 43 | CC(=O)NC(C)c1ccc(CN2CCc3c(ccc(OCC4CC4)c3Cl)C2)cc1 (centres unmarked) [Example 1.026] |
| 699 | CC(=O)NC(C)c1ccc(CN2CCc3c(cccc3C(F)F)C2)cc1 (centres unmarked) [Example 1.027] |
| 789 | CC(=O)NC(C)c1ccc(CN2CCc3cc(C(F)F)ccc3C2)cc1 (centres unmarked) [Example 1.028] |
| 228 | CC(=O)NC(C)c1ccc(CN2CCc3c(ccc4c3OCCO4)C2)cc1 (centres unmarked) [Example 1.029] |
| 58 | CC(=O)NC(C)c1ccc(CN2CCc3c(ccc(OCC(C)C)c3Cl)C2)cc1 (centres unmarked) [Example 1.030] |
| 76 | CC(=O)NC(C)c1ccc(CN2CCc3c(ccc(OCC4CC4(F)F)c3Br)C2)cc1 (centres unmarked) [Example 1.031] |
| 263 | CCOc1ccc2c(c1Cl)CCN(Cc1ccc(C(C)NC(C)=O)cc1)C2 (centres unmarked) [Example 1.032] |
| 44 | CC(=O)NC(C)c1ccc(CN2CCc3c(ccc(OCC4CCC4)c3Cl)C2)cc1 (centres unmarked) [Example 1.033] |
| 54 | CC(=O)NC(C)c1ccc(CN2CCc3c(ccc(OCCC(F)(F)F)c3Cl)C2)cc1 (centres unmarked) [Example 1.034] |
| 61 | CC(=O)NC(C)c1ccc(CN2CCc3c(ccc(OCCC4CC4)c3Cl)C2)cc1 (centres unmarked) [Example 1.035] |
| 101 | COc1c(OCc2ccccc2)ccc2c1CCN(Cc1ccc(C(C)NC(C)=O)cc1)C2 (centres unmarked) [Example 1.036] |
| 80 | CC(=O)NC(C)c1ccc(CN2CCc3c(ccc(OC4CCC4)c3Cl)C2)cc1 (centres unmarked) [Example 1.037] |
| 218 | CC(=O)NC(C)c1ccc(CN2CCc3c(ccc(OCC(F)F)c3Cl)C2)cc1 (centres unmarked) [Example 1.038] |
| 57 | CC(=O)NC(C)c1ccc(CN2CCc3c(ccc(OCCCF)c3Cl)C2)cc1 (centres unmarked) [Example 1.039] |
| 57 | CCCOc1ccc2c(c1)CCN(Cc1ccc([C@H](C)NC(=O)C3CC3)cc1)C2 [Example 1.041] |
| 65 | C[C@H](NC(=O)C1CC1)c1ccc(CN2CCc3cc(OCC4CC4)ccc3C2)cc1 [Example 1.042] |
| 180 | CCOc1ccc2c(c1)CCN(Cc1ccc([C@H](C)NC(=O)C3CC3)cc1)C2 [Example 1.043] |
| 193 | C[C@H](NC(=O)C1CC1)c1ccc(CN2CCc3cc(OC4CCC4)ccc3C2)cc1 [Example 1.044] |
| 83 | C[C@H](NC(=O)C1CC1)c1ccc(CN2CCc3cc(OCCC(F)(F)F)ccc3C2)cc1 [Example 1.045] |
| 163 | C[C@H](NC(=O)C1CC1)c1ccc(CN2CCc3cc(OCC(F)F)ccc3C2)cc1 [Example 1.046] |
| 71 | CC(C)Oc1ccc2c(c1)CCN(Cc1ccc([C@H](C)NC(=O)C3CC3)cc1)C2 [Example 1.047] |

| IC50 [nM] | SMILES |
| --- | --- |
| 139 | COc1c(OCC2CC2)ccc2c1CCN(Cc1ccc([C@H](C)NC(=O)C3CC3)cc1)C2 [Example 1.048] |
| 63 | C[C@H](NC(=O)C1CC1)c1ccc(CN2CCc3c(ccc(OCC4CC4(F)F)c3Cl)C2)cc1 (some centres unmarked) [Example 1.049] |
| 120 | C[C@H](NC(=O)C1CC1)c1ccc(CN2CCc3c(ccc(OCC4CC4)c3Cl)C2)cc1 [Example 1.050] |
| 31 | C[C@H](NC(=O)C1CC1)c1ccc(CN2CCc3cc(OC[C@@H]4CC4(F)F)ccc3C2)cc1 [Example 1.051] |
| 24 | C[C@H](NC(=O)C1CC1)c1ccc(CN2CCc3cc(OC[C@H]4CC4(F)F)ccc3C2)cc1 [Example 1.052] |
| 142 | COc1c(OCC2CC2(F)F)ccc2c1CCN(Cc1ccc([C@H](C)NC(=O)C3CC3)cc1)C2 (some centres unmarked) [Example 1.053] |
| 269 | COc1c(OCCC(F)(F)F)ccc2c1CCN(Cc1ccc([C@H](C)NC(=O)C3CC3)cc1)C2 [Example 1.054] |
| 41 | COc1c(OCC2CCC2)ccc2c1CCN(Cc1ccc([C@H](C)NC(=O)C3CC3)cc1)C2 [Example 1.055] |
| 51 | COc1c(OCC2CC(F)(F)C2)ccc2c1CCN(Cc1ccc([C@H](C)NC(=O)C3CC3)cc1)C2 [Example 1.056] |
| 102 | COc1c(OCC(C)C)ccc2c1CCN(Cc1ccc([C@H](C)NC(=O)C3CC3)cc1)C2 [Example 1.057] |
| 137 | COc1c(OCCC2CC2)ccc2c1CCN(Cc1ccc([C@H](C)NC(=O)C3CC3)cc1)C2 [Example 1.058] |
| 58 | C[C@H](NC(=O)C1CC1)c1ccc(CN2Cc3ccc(OCC4CC4)cc3C(F)C2)cc1 (some centres unmarked) [Example 1.059] |
| 29 | C[C@H](NC(=O)C1CC1)c1ccc(CN2Cc3ccc(OCC4CC4(F)F)cc3C(F)C2)cc1 (some centres unmarked) [Example 1.060] |
| 140 | C[C@H](NC(=O)C1CC1)c1ccc(CN2Cc3ccc(OCC4CC4(F)F)cc3C(O)C2)cc1 (some centres unmarked) [Example 1.061] |
| 55 | CC(=O)N[C@@H](C)c1ccc(CN2CCc3c(ccc(OCC4(C(F)(F)F)CC4)c3Cl)C2)cc1 [Example 1.062] |
| 45 | CC(=O)N[C@@H](C)c1ccc(CN2CCc3cc(OCCC(F)F)ccc3C2)cc1 [Example 1.063] |
| 104 | COc1c(OCC2CC2(F)F)ccc2c1CCN(Cc1ccc([C@H](C)NC(C)=O)cc1)C2 (some centres unmarked) [Example 1.064] |
| 211 | COc1c(OCCCF)ccc2c1CCN(Cc1ccc([C@H](C)NC(C)=O)cc1)C2 [Example 1.065] |
| 111 | COc1c(OCCC(F)(F)F)ccc2c1CCN(Cc1ccc([C@H](C)NC(C)=O)cc1)C2 [Example 1.066] |
| 233 | CCOc1ccc2c(c1OC)CCN(Cc1ccc([C@H](C)NC(C)=O)cc1)C2 [Example 1.067] |
| 70 | COc1c(OCC(C)C)ccc2c1CCN(Cc1ccc([C@H](C)NC(C)=O)cc1)C2 [Example 1.068] |
| 418 | COc1c(OC(C)C)ccc2c1CCN(Cc1ccc([C@H](C)NC(C)=O)cc1)C2 [Example 1.069] |
